Test results from patent US20070212355A1 (priority 2005, published 2007).

B1: SEQ ID NO: 80: human A2G-GLP2 peptide in murine IgG2a scaffold (protein)
chain: HGDGSFSDEMNTILDNLAARDFINWLIQTKITDGSGGGSGTTVTVSAEPRGPTIKPCPPCKCPAPNAAGGPSVFIFPPKIKDVLMISLSPIVTCVVVDVSEDDPDVQISWFVNNVEVHTAQTQTHREDYNSTLRVVSALPIQHQDWMSGKEFKCKVNNKDLPAPIERTISKPKGSVRAPQVYVLPPPEEEMTKKQVTLTCMVTDFMPEDIYVEWTNNGKTELNYKNTEPVLDSDGSYFMYSKLRVEKKNWVERNSYSCSVVHEGLHNHHTTKSFSRTPGK
modifications: Human A2G-GLP2 peptide in murine IgG2a scaffold

How the values were obtained:
CD1 mice = assay: Mucosal wet weight of small intestine after 10 daily subcutaneous injections; type: in vivo
Text: Afterwards, the mice were euthanized and the small intestines were removed, flushed with saline, and processed as described below.
(§1) Specifically, 4 cm sections were harvested: (1) immediately distal to the pylorus (duodenum), (2) starting 2 cm distal of the ligament of Treitz (jejunum), and (3) immediately proximal to the cecum (ileum). The remaining small intestine from ˜6 cm distal of the ligament of Treitz to 4 cm proximal to the cecum was used to prepare mucosal scrapings. From the proximal and distal ends of the remnant, an equal distance was removed until a 15 cm section remained, the remnant was cut longitudinally, rinsed, and the mucosal layer was removed using the short end of a glass microscope slide. The wet weight of the intact intestinal segments and mucosa was measured.

[1] = Pharmacokinetics in CD1 mice, TRF assay of active mimetibody; type: in vivo
Text: Blood was collected at different time points into citrate buffer containing protease inhibitors to minimize the possibility of ex vivo degradation and plasma was separated by centrifugation.
(§2) A time resolved fluorescence (TRF) assay was used to measure active mimetibody. Active mimetibody reflects the intact N-terminus of the peptide still attached to the Fc region of the mimetibody.

[2] = Pharmacokinetics in cynomolgus monkeys, TRF assay; type: in vivo; details: 1 mg/kg intravenously
Text: as §2

mice [3] = assay: Pharmacodynamics: dosing-regimen study, intestinal weights, 11 days; type: in vivo
Text: as §1
The duration of the study was 11 days and tissue was processed as described in Example 4.

[4] = SEC-SLS analysis of mimetibodies (monomer/dimer); type: physicochemical; details: purified from HEK 293E/HEK 293 expression
mice [5] = assay: Upper gastrointestinal transit, FITC-dextran method, normal mice; type: in vivo; details: for upper gastrointestinal transit (FITC-dextran): single 4 mg/kg dose 4 days prior, FIG. 4, 4 mg/kg
Protocol: On the day of study, upper gastrointestinal transit was measured using the FITC-dextran method. This method provides both, a measure of gastrointestinal transit and a readout of the pattern of distribution of the test meal along the gastrointestinal tract. Mice were fed a test meal of […] of FITC-dextran solution (5 mg/ml of 70,000 molecular weight dextran conjugated to fluorescein-isothiocyanate in 0.5% methylcellulose/deionized water) administered intragastrically by an 18 gauge curved feeding tube. Following oral administration of the FITC-dextran test meal, mice were returned to their home cages. It was shown that a 30 min test period was the optimum duration for detecting accelerated transit, while a 45 min test period was optimum for detecting delayed transit. Following the appropriate test period, mice were sacrificed by carbon dioxide exposure. The entire gastrointestinal tract from the lower esophageal sphincter to the terminal colon was removed. The bowel segments were opened along the mesenteric border. The tissue and luminal contents of the stomach, 10 equal segments of small intestine, the cecum, and 3 equal segments of colon were placed in individual Eppendorf tubes containing 1 ml of PBS. The tissue was vigorously mixed on a table-top vortex, and solid materials were pelleted by centrifugation. Aliquots of the cleared supernatant were read in duplicate on a 96-well fluorescence plate reader to quantify the magnitude of the fluorescent signal in each segment of bowel. These values were used to calculate the Geometric Center (GC), which is defined as the weighted average distribution of the fluorescent signal along the gastrointestinal tract: GC=Σ(% of total fluorescent signal per segment×segment number)/100. Higher values represent faster rates of transit on scale of 1 to 15. […] The mimetibody-induced shift in the distribution pattern of FITC-dextran is shown in the upper panel. […] The GC is calculated in the lower panel for statistical comparison.

CD-1 mice [6] = assay: Gastrointestinal transit in post-operative inflammatory ileus model; type: in vivo; details: 2 mg/kg one hour before surgery; transit 48 hr after operation, 45 minutes; FIG. 5
Protocol: On the day of study, upper gastrointestinal transit was measured using the FITC-dextran method. This method provides both, a measure of gastrointestinal transit and a readout of the pattern of distribution of the test meal along the gastrointestinal tract. Mice were fed a test meal of […] of FITC-dextran solution (5 mg/ml of 70,000 molecular weight dextran conjugated to fluorescein-isothiocyanate in 0.5% methylcellulose/deionized water) administered intragastrically by an 18 gauge curved feeding tube. Following oral administration of the FITC-dextran test meal, mice were returned to their home cages. It was shown that a 30 min test period was the optimum duration for detecting accelerated transit, while a 45 min test period was optimum for detecting delayed transit. Following the appropriate test period, mice were sacrificed by carbon dioxide exposure. The entire gastrointestinal tract from the lower esophageal sphincter to the terminal colon was removed. […] Aliquots of the cleared supernatant were read in duplicate on a 96-well fluorescence plate reader to quantify the magnitude of the fluorescent signal in each segment of bowel. […] The GC is calculated in the lower panel for statistical comparison. […]
All mice received an oral test meal of FITC-dextran 48 hr after the operation. Gastrointestinal transit was determined 45 minutes after oral feeding. […]

CD-1 mice [7] = assay: Myeloperoxidase histochemistry of intestinal muscularis, post-operative inflammatory ileus; type: in vivo; details: 2 mg/kg one hour before surgery; tissue 48 hr after operation; FIG. 6, 7
Protocol: Myeloperoxidase histochemistry was performed on tissues harvested from the mid-small bowel of the mice 48 hr after the operation.
Briefly, segments of mid-small bowel were collected from the centrifuge tubes described in Example 12. Whole mounts of the muscle layer were prepared by pinning the tissue flat in a Sylgard® lined Petri dish and stretching the tissue to 2 times its length and 1.5 times its width. The mucosa was removed by fine dissection. The muscularis whole mounts were then fixed with 100% ethanol for 1 hr, washed 3 times with PBS, and incubated for 20 min in PBS containing 0.1% hydrogen peroxide and 1 mg/ml Hanker-Yates reagent. Following a second wash with PBS, the whole mounts were mounted on glass slides, cover-slipped, and viewed on an optical microscope. Myeloperoxidase containing leukocytes were counted in 6 to 8 adjacent 200× optical fields of view and the mean cell counts were calculated and recorded.

Molecule	increase in mucosal wet weight vs control mimetibody (CD1 mice; 0.8 mg/kg (0.26 nmole) daily s.c. 10 days, p<0.0001)	increase in mucosal wet weight vs control mimetibody (CD1 mice; 8 mg/kg (2.6 nmole) daily s.c. 10 days, p<0.0004)	mucosal wet weight (15 cm segment between jejunum and ileum), dose response (CD1 mice; daily s.c. 10 days, female CD1 mice, FIG. 2)	effective in vivo dose lower than that of A2G GLP-2 peptide (molar basis) (CD1 mice; mucosal weight model) [fold]	calculated half-life ([1]; CD1 mice, 3 mg/kg intravenously or subcutaneously, TRF) [h]	half-life relative to GLP-2 peptide ([1]; mimetibody in mice vs reported GLP-2 peptide in humans)	calculated half-life [2] [h]	mucosal weight difference to control mimetibody (mice [3]; 4 mg/kg every day or every other day, 11 day study, compared with once per week)	mucosal weight compared to control mimetibody (mice [3]; 4 mg/kg once per week, 11 day study)	duodenum and jejunum section wet weight over control mimetibody (mice [3]; 4 mg/kg, all regimens except for the single dose experiment)	SEC-SLS association state of mimetibody [4]	upper gastrointestinal transit (FITC-dextran) (mice [5]; listed as A2G GLP-2 mimetibody)	upper gastrointestinal transit (FITC-dextran) (mice [5]; listed as GLP-2 mimetibody)	Geometric Center (GC) of FITC-dextran (mice [5]; single injection 4 days prior, 30 minute test, scale 1 to 15, normal mice GC=6)	effect on surgically induced delay in gastrointestinal transit (CD-1 mice [6])	number of MPO-positive leukocytes infiltrating small intestinal muscle layer (CD-1 mice [7])
SEQ ID NO: 5: A2G GLP-2 IgG4 mimetibody; core HGDGSFSDEMNTILDNLAARDFINWLIQTKITDGSGGGSGTLVTVSSESKYGPPCPPCP	statistically significant	statistically significant	dose dependent increase	50	26.5	more than 200 fold	115	more pronounced	significantly increased mucosal weight	significant increase in weight	dimer	significant acceleration of intestinal transit	acceleration of upper gastrointestinal transit	7.5		
B1															significant improvement in transit	significantly reduced the number of infiltrating cells
